One may read the EC50 as the concentration at which the effect is half-maximal. What is called AC50 is the concentration giving half of the maximal activity seen.

Each structure is given as a SMILES string. The source made the active and inactive calls. Some results are limits rather than exact numbers.

Assay [1] addresses T1, Mitochondrial peptide methionine sulfoxide reductase (Bos taurus, UniProt P54149).
T1 sequence (P54149 whole entry): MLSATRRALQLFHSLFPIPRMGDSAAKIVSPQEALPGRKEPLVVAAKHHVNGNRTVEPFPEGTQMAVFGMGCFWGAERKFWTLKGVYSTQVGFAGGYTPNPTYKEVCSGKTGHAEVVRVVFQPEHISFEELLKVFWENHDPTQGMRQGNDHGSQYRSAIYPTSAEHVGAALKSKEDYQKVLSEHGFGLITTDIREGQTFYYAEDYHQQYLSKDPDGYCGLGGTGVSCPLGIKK
It counts as functional.

A short description of assay [2]: inhibitors of SNCA 5'UTR-driven reporter translation, confirmation, H4 neuroglioma cells, luminescence (AID 1988). It is filed as functional, cell-based.
Assay [3] addresses G-protein coupled receptor 55 (Homo sapiens, UniProt Q9Y2T6). Put plainly: GPR55 antagonists blocking LPI-driven arrestin recruitment, primary screen, imaging, U2OS, beta-arrestin-GFP, LPI agonist (AID 2013).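 Note: antagonist potency measured as reduced agonist-driven arrestin aggregation.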 It is filed as functional.
Assay [4] deals with T2, Mannose-6-phosphate isomerase (Homo sapiens, UniProt P34949).
T2 sequence (P34949 whole entry): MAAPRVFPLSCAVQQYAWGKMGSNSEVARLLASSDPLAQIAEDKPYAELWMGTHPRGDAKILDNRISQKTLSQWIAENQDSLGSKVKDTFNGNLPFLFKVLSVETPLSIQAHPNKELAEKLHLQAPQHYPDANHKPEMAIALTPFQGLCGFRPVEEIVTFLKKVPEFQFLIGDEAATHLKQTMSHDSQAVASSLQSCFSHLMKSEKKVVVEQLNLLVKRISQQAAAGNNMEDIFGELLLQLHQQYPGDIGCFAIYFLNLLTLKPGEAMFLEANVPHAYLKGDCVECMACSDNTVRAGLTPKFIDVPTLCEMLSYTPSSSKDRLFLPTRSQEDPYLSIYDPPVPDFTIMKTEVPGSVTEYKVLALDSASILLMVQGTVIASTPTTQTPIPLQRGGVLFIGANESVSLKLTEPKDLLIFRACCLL
Briefly: inhibitors of human PMI, primary screen, biochemical, fluorescence intensity, coupled assay (AID 1209).

For assay [5], the target named is Neuropeptide Y receptor type 2 (Homo sapiens, UniProt P49146). It counts as functional, cell-based.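 Note: HEK293 cells expressing the receptor and a CNG channel; stimulus was NPY near EC95 followed by isoproterenol to raise cAMP; antagonist potency measured as restoring cAMP signal that NPY suppresses.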
In assay [6] the target is Voltage-gated inwardly rectifying potassium channel KCNH2 (Homo sapiens, UniProt Q12809). Briefly: hERG protection from proarrhythmic block, potency, dose response, cell-based, thallium flux (AID 2121). It counts as ADME. In general terms: The hERG channel carries a current that helps repolarise heart muscle cells.
The test system of another assay is BJ. Put plainly: cytotoxicity toward Ras-transformed BJeLR fibroblasts, dose response, cell-based, alamar blue fluorescence, cherrypicked samples (AID 2631).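 Note: confirmatory dose-response assay in RAS-dependent BJ fibroblasts engineered with TERT, LT and ST, with cytotoxicity read by fluorescence.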 It is filed as functional. The following applies: Homo sapiens. A general note: Resazurin is reduced to fluorescent resorufin, in cell work by metabolically active cells.
Assay [7] addresses Dual specificity tyrosine-phosphorylation-regulated kinase 1A (Rattus norvegicus, UniProt Q63470). It is filed as biochemical, Homo sapiens.
Assay [8] concerns the target Histone-lysine N-methyltransferase NSD2 (Homo sapiens, UniProt O96028). It counts as biochemical.
Assay [9] in a line: HEK293T cytotoxicity, dose response, cytotoxicity control for miR-122 modulator project, cell-based, activator set, cherry-pick (AID 720690).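 Note: HEK293T human cells scored for general mammalian cytotoxicity.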 It is filed as functional.
The target of assay [10] is Voltage-gated N-type calcium channel alpha-1B subunit/Amyloid beta A4 precursor protein-binding family A member 1 (Homo sapiens, UniProt Q00975+Q02410). It counts as protein assay.
Assay [11] concerns the target Small ubiquitin-related modifier 2 (Homo sapiens, UniProt P61956). Put plainly: SUMO2–SIM peptide binding inhibitors, dose response, selectivity assay for SUMO1 interaction inhibitor project, biochemical, fluorescence polarization, uHTS hits (AID 624385). The following applies: read-out: IC50_Mean. It is filed as functional.
The target in assay [12] is T3, Small ubiquitin-related modifier 1 (Homo sapiens, UniProt P63165). Briefly: inhibitors of SUMO1 peptide binding, dose response, biochemical, fluorescence polarization, uHTS hits (AID 624382). Conditions: read-out: IC50_Mean. It counts as functional. Background: Polarisation of emitted light reports the rotation of a fluorescent probe.
For assay [13], the target named is T3, Small ubiquitin-related modifier 1. Put plainly: inhibitors of SUMO1 partner interactions, dose response, biochemical, FRET (AID 624383). It is filed as functional. The following applies: read-out: IC50_Mean.
Assay [14] addresses T4, Rac GTPase-activating protein 1 (Homo sapiens, UniProt Q9H0H5).
T4 sequence (Q9H0H5 whole entry): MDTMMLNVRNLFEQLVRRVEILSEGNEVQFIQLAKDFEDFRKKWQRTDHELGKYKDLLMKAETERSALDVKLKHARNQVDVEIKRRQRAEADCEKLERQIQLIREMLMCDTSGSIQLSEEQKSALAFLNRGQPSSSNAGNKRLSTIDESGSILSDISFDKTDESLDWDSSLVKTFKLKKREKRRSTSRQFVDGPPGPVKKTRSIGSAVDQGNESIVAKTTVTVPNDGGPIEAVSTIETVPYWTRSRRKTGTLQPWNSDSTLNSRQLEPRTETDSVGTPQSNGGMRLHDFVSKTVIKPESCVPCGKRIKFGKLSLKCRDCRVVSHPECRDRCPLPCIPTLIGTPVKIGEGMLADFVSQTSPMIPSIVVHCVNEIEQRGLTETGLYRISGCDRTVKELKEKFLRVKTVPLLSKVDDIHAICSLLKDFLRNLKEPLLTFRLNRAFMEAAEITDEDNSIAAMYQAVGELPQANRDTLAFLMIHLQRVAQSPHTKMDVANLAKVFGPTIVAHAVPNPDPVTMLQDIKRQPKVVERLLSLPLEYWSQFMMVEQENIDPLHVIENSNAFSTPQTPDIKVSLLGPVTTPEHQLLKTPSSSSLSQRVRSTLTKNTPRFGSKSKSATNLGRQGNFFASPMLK
Put plainly: MgcRacGAP GTPase-activating activity inhibitors, confirmation, biochemical, ADP Hunter fluorescence, primary and confirmatory (AID 624330). It is filed as functional.

Assay [15] in a line: growth suppression of PTEN-null colon cells, dose response, cell-based, HCT116 PTEN knockout (AID 1047).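 Note: HCT116 colon tumor cells with PTEN knocked out; cells exposed to compound for 60 hours before readout; potency for loss of cell viability measured by luminescence.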 It counts as functional.
Assay [16] in a line: growth suppression of beta-catenin-knockout colon cells, dose response, cell-based, HCT116, human colon tumor (AID 1045).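 Note: HCT116 colon tumor cells with beta catenin knocked out; cells exposed to compound for 60 hours.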 It is filed as functional.
Assay [17] is described as follows: NIH-3T3 fibroblast cytotoxicity, dose response, cytotoxicity control, cell-based, fluorescence, Alamar Blue, secondary assay (AID 2327).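 Note: NIH-3T3 mouse fibroblasts cultured with fluconazole at 8 µg/mL.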 It is filed as functional.
The nature of another assay: cells. It is filed as functional, cell-based.
Assay [18] can be described thus: Counterscreen for AddAB inhibitors: absorbance-based bacterial cell-based high throughput dose response assay for inhibitors of bacterial viability. [Related pubchem assays (depositor defined):AID435030, AID449728, AID449731, AID488942, AID488955, AID488956]. It counts as functional.
Assay [19] relates to HEK293. Put plainly: SAR Analysis of small molecule inhibitors of T-cell specific antigen receptor-induced NF-kB activation in a HEK-293T cell line using a luminescence assay - Set 2. [Related pubchem assays (depositor defined):AID435003, AID435012, AID489026]. It is filed as functional, cell-based. The following applies: Homo sapiens.
The test system of assay [20] is HEK293. Put plainly: SAR Analysis of small molecule inhibitors of T-cell specific antigen receptor-induced NF-kB activation in a HEK-293T cell line using a luminescence assay. [Related pubchem assays (depositor defined):AID435003, AID435012, AID489026]. The following applies: Homo sapiens. It counts as functional, cell-based.
The target in assay [21] is Sphingosine 1-phosphate receptor 1 (Homo sapiens, UniProt P21453). It counts as functional.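 Note: Tango beta-arrestin reporter U2OS cells stimulated with S1P near its EC80; inhibitor potency meaning antagonism of receptor activation by the natural agonist.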
Chain of Sphingosine 1-phosphate receptor 1 (P21453 whole entry): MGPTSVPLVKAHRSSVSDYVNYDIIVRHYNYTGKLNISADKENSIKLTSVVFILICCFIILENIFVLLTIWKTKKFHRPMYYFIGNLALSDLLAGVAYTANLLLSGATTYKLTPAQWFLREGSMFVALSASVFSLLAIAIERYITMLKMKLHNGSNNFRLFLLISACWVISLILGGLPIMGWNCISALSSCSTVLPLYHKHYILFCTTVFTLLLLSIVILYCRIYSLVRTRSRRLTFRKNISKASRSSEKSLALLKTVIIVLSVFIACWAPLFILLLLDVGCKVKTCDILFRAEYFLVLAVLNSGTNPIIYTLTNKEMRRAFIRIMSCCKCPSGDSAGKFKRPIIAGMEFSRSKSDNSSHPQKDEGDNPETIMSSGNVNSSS

T3 sequence (P63165 whole entry): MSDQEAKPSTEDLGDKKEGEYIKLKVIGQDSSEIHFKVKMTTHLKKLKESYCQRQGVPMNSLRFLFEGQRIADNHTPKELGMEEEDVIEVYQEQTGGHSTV
Chain of Voltage-gated N-type calcium channel alpha-1B subunit/Amyloid beta A4 precursor protein-binding family A member 1 (Q00975 whole entry): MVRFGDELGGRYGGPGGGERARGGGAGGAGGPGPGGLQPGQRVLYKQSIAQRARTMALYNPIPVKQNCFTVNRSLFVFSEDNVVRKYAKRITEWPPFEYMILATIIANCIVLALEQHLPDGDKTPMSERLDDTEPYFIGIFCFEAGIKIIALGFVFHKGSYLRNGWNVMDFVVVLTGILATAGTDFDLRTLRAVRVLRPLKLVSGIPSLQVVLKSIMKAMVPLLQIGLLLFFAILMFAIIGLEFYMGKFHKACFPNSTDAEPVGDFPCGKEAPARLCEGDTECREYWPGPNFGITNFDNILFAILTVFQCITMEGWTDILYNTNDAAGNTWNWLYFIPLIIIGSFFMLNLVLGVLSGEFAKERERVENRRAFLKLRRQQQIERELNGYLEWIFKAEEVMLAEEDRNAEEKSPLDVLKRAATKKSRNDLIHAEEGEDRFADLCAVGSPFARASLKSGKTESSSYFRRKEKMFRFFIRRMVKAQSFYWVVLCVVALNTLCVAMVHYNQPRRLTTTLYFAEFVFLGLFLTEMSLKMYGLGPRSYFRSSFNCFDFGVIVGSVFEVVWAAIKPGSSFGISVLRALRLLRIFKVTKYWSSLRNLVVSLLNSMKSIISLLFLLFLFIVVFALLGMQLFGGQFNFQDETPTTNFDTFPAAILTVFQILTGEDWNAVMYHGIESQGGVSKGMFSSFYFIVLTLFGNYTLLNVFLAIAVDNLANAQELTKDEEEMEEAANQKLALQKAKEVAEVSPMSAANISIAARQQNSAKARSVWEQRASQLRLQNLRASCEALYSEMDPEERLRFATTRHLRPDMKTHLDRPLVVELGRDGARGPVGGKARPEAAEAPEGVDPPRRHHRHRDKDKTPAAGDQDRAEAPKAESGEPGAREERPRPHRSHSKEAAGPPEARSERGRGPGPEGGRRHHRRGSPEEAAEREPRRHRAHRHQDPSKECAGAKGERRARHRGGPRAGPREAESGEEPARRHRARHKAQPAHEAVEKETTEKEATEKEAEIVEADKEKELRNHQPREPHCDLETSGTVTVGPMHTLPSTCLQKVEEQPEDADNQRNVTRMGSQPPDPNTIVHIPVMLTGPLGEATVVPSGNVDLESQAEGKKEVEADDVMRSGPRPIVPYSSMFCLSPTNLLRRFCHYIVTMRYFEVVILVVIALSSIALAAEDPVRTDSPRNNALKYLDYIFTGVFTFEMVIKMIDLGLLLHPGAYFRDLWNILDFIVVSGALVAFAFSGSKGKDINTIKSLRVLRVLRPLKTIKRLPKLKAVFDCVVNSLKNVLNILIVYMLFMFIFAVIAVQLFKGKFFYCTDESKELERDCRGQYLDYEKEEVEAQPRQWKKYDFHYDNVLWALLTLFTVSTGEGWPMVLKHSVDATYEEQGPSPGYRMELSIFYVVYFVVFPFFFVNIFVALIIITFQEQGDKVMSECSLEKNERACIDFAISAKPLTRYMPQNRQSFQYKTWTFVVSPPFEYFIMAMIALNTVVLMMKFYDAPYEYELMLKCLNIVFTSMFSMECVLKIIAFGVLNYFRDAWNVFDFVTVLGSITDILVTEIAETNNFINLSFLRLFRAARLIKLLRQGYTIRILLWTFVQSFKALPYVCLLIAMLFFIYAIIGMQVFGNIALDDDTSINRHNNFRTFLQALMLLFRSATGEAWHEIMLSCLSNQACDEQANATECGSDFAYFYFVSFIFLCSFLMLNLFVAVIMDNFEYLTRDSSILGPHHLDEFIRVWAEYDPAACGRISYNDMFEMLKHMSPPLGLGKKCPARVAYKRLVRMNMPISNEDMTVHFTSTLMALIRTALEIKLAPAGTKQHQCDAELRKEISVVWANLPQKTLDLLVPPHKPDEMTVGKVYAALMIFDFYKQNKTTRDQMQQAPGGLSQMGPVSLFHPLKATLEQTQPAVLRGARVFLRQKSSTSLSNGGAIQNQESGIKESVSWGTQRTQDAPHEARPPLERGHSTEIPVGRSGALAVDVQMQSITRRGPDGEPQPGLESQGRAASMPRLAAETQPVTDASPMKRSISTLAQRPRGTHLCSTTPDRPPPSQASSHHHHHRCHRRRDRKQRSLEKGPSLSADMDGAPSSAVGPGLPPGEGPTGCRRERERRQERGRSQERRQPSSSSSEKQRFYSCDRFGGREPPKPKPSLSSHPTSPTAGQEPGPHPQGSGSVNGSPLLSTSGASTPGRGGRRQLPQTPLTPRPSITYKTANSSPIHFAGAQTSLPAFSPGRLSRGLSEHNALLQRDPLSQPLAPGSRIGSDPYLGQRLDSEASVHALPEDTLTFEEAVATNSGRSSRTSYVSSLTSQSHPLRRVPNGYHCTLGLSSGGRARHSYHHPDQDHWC
Chain of Voltage-gated N-type calcium channel alpha-1B subunit/Amyloid beta A4 precursor protein-binding family A member 1 (Q02410 whole entry): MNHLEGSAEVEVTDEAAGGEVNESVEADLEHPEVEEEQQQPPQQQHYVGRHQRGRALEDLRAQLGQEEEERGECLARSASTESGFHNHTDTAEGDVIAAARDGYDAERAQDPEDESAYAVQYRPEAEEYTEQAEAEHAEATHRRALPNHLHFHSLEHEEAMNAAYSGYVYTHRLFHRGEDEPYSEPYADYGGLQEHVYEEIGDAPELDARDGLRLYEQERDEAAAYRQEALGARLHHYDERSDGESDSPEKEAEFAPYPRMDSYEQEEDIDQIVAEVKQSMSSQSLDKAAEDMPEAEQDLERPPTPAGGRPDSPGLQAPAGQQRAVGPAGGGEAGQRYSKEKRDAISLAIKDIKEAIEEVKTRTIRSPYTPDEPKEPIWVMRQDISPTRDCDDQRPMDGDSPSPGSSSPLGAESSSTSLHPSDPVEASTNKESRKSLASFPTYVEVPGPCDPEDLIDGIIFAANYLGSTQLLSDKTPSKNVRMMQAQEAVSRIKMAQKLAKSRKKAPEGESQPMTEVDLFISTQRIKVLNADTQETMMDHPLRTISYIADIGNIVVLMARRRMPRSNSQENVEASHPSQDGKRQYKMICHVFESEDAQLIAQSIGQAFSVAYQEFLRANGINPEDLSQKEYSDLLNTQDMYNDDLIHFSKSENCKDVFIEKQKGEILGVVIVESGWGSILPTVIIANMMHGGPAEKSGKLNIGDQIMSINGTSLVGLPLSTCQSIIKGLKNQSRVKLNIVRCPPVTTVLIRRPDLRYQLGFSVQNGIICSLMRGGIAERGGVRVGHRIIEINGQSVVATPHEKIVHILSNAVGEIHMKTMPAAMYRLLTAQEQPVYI
Chain of Small ubiquitin-related modifier 2 (P61956 whole entry): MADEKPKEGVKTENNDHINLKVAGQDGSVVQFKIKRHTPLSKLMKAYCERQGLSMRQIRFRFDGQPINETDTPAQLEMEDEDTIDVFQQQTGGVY
Chain of Voltage-gated inwardly rectifying potassium channel KCNH2 (Q12809 whole entry): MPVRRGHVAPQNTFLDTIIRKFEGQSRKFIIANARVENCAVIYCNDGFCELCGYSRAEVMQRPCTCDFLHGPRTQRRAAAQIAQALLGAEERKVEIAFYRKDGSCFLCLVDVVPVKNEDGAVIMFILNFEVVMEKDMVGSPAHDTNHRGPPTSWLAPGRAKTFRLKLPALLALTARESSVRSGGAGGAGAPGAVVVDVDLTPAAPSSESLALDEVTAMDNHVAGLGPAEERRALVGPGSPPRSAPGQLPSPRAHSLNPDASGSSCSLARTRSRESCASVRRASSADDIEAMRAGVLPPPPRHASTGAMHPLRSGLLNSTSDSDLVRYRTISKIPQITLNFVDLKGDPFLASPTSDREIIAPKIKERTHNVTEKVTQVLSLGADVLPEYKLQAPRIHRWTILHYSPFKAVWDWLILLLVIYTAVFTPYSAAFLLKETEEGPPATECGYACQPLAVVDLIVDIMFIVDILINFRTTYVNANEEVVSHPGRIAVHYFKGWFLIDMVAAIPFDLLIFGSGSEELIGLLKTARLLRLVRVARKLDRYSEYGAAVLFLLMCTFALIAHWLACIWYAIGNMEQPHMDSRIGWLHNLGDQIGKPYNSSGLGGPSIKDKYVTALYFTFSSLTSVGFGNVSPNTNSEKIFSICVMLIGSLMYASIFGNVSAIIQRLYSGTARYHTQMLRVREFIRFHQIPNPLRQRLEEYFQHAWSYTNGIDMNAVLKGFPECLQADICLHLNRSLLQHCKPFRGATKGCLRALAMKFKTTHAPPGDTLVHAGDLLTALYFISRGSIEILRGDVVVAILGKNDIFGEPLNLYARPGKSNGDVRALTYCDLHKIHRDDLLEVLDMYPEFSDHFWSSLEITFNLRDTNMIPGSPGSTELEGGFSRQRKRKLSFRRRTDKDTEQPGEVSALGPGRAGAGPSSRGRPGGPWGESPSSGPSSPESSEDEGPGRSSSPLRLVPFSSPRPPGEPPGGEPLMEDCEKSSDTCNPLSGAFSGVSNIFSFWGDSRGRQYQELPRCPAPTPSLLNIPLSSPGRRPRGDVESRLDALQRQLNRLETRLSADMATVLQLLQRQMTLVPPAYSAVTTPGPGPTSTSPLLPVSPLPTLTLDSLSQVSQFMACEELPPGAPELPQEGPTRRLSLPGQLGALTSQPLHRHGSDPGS

As for `O=C(O)c1ccc(NC2=C/C(=N/S(=O)(=O)c3ccccc3)c3ccccc3C2=O)cc1`, in [1], the IC50 is 6.42 µM (active).
Regarding `Nc1ccc2c(c1)C(=O)C(=O)c1ccccc1-2`, the concentration giving a half-maximal response (EC50) was > 120 µM (not active) in assay [2], 1.38 µM (active) in [6] and 2.8 µM (active) in the assay with BJ. Also, the IC50 in assay [3] was 1.36 µM (active); in assay [4] it was > 50 µM (not active); in assay [5] it was 4.25 µM (active). In addition, the concentration at half-maximal activity (AC50) in assay [7] is 0.547 µM (active); in assay [8] it was 0.273 µM (active); in assay [9], 6.54 µM (active).
On to `COc1cc(-c2ccc(Nc3ccccc3C(=O)O)c(OC)c2)ccc1Nc1ccccc1C(=O)O`, for which the IC50 in [10] was 7.6 µM (active); in [11], 2.34 µM (active); in [12], 0.647 µM (active); in assay [13] it was 3.9 µM (active); in assay [14], 41.4 µM (active).
For `COC(=O)[C@@H]1[C@@H](C(=O)OC)C2(c3ccccc3-c3ccccc32)N(c2ccc(Cl)cc2)N1C#N`, the concentration giving a half-maximal response (EC50) in assay [15] is 7.77 µM (active); in assay [16], 8.83 µM (active).
Take `CCCC(=O)NC(c1ccccc1OC)c1ccc2cccnc2c1O` (stereo not drawn): the EC50 in assay [17] was 28.7 µM (active); in “cells” it was > 350 µM (not active). Besides, the IC50 in [18] is > 119 µM (inactive); in the assay with HEK293 [19] it was 3.97 µM (active); in the assay with HEK293 [20] it was 12.5 µM (active).
With `COC(CNC(=O)c1ccc2c3c(onc13)-c1ccccc1C2=O)OC`, in assay [21], the IC50 is given as 15.1 µM (not active).
